Assay results as given in US10557853B2 (priority 2012, dated 2020).
“And” between values parts separate entries of the source, which are not always exact repeats. Identical values can stand only once. “Also recorded” adds a separate entry of the source.

Tests used:
AChE [1] = target: T1, AChE (Tetronarce californica, UniProt P04058); assay: AChE sensing: fluorescence response of TOPI sensors; assay type: binding; settings: 100 nM sensor, 90 nM AChE
T1 construct: gift from Prof; Israel Silman Lab (Weizmann Institute of Science)
Procedure: Fluorescence values were recorded immediately after addition of the proteins (FIGS. 12a and 13a).

AChE [2] = target: T1, AChE; assay: AChE kinetic measurements (Ellman method); assay type: biochemical; settings: for inhibition of AChE activity: 8 pM AChE, sensor 36 50 nM, sensor 37 2 μM
Procedure: The AChE activity was measured spectrophotometrically using 5,5′-dithiobis(2-nitrobenzoic acid) (DTNB) and acetylthiocholine iodide as substrates, in phosphate buffer (50 mM, pH 8.0). […] The final concentrations of AChE, DTNB, and acetylthiocholine iodide were 8 pM, 0.4 mM, and 0.4 mM, respectively.

GST-M1-1 [3] = target: T2, GST-M1-1 (Homo sapiens, UniProt P09488); assay: Displacement (inhibitor screening) assay with sensor 14-GST-M1-1 complex; assay type: binding; settings: 50 μM drug, sensor 14 90 nM, GST M1-1 90 nM
T2 construct: purchased Oxford Biomedical Research (a second source is given: Israel Structural Proteomics Center, recombinant)
T2 sequence (P09488 2-218 limits assumed): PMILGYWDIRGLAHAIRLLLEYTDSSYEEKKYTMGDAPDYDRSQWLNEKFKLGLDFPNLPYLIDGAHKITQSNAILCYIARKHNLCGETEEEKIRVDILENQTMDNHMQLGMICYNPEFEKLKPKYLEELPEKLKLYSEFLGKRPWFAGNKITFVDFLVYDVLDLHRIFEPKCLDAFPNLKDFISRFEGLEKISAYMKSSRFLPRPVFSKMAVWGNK
Procedure: A possible advantage of such systems, however, is that they abrogate the need for using labelled substrates and following the reaction kinetics. Such sensors could, therefore, complement other label-free enzyme assays that rely on indicator displacement mechanisms.
The sensor 14-GST-M1-1 complex was treated with a random library of known drugs.

[4] = tested on: MDA-MB-231 cancer cells, overexpressing GST-P1-1; assay: Live cell fluorescence imaging, MDA-MB-231; assay type: cell-based; settings: 2 μM, 15 minutes at 37° C.
Procedure: GST-P1-1 is a cytosolic protein, whereas DNA is located in the nucleouse.
MDA-MB-231 cells were maintained in RPMI supplemented with 10% FBS, L-glutamine, and antibiotics. […] Cell images were analyzed using imageJ.

GST-P1-1 [5] = target: T3, GST-P1-1 (Homo sapiens, UniProt P09211); assay: GST sensing: fluorescence response to GST-P1-1; assay type: binding; settings: 100 nM sensor
T3 construct: purchased Oxford Biomedical Research (a second source is given: Israel Structural Proteomics Center, recombinant)
Procedure: (§1) The most efficient TOPI sensors were identified (FIG. 12) by measuring the fluorescence of the six sensors (100 nM) in the absence and presence of their targets (90 nM) (FIG. 13).
(§2) Based on the obtained binding constants (FIG. 15), a concentration of 100 nM sensor was chosen for GST sensing. This concentration should ensure strong binding and a high S/N ratio.

dsDNA = assay: Fluorescence response to double-stranded DNA; assay type: binding; settings: for fluorescence response to addition of dsDNA (FIG. 21e): 100 nM sensor or TO, 400 nM dsDNA, phosphate buffer 5 mM pH 6.5
Procedure: Different 10 derivatives (Table 3) were incubated with increasing concentrations of double-stranded DNA and compared their fluorescence emission prior to and after their incubation in PBS buffer, pH=6.5 (FIG. 9).

GST-P1-1 [6] = target: T3, GST-P1-1; assay: Fluorescence binding study, dissociation constant with GST-P1-1; settings: fluorescence titration, phosphate buffer 5 mM pH 6.5; read-out: approximate dissociation constant Kd, GST-P1-1
Procedure: The approximate dissociation constants were determined for GST-M1-1 and GST-P1-1. For these experiments, the concentration of the sensor was chosen according to the enzymatic assays (Ki values, FIG. 18, 19). It was chosen to be lower than the Ki (expected Kd), but such that would also generate a detectable and reproducible emission signal in the plate reader. […] The data were analyzed using Graphpad Prism 6.0 and fitted to the equation: Y=Bmax·X/(kd+X) where Bmax is the maximum binding and X is the concentration of protein.

healthy MCF-10A cells = assay: Live cell fluorescence imaging, MCF-10A; assay type: cell-based; settings: 2 μM
streptavidin (SAv) = streptavidin (SAv) (Streptomyces avidinii, UniProt P22629); assay: SAv sensing: fluorescence response of TOPI sensors; assay type: binding; settings: 100 nM sensor, 90 nM SAv
Procedure: as §1
(§3) Fluorescence values were recorded immediately after addition of the proteins (FIGS. 12d and 13b).

avidin (Av) = avidin (Av) (Gallus gallus, UniProt P02701); assay: Av sensing: fluorescence response of TOPI sensors; assay type: binding; settings: 100 nM sensor, 90 nM Av; for enhancement in fluorescence emission upon addition of Av: phosphate buffer 15 mM pH 7.3
Procedure: as §1, §3

GST-A2-2 [7] = target: T4, GST-A2-2 (Homo sapiens, UniProt P09210); assay: GST sensing: fluorescence response to GST-A2-2; assay type: binding; settings: 100 nM sensor, 90 nM isozyme
T4 construct: purchased Oxford Biomedical Research (a second source is given: Israel Structural Proteomics Center, recombinant)
T4 sequence (P09210 2-222 limits assumed): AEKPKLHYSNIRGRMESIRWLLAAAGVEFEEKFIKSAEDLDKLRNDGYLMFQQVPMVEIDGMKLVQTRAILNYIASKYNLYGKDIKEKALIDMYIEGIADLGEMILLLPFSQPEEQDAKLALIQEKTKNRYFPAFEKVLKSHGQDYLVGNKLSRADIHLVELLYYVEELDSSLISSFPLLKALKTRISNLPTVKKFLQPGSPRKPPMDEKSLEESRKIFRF
Procedure: as §1, §2

GST-A1-1 = target: T5, GST-A1-1 (Homo sapiens, UniProt P08263); assay: GST sensing: fluorescence response to GST-A1-1; assay type: binding; settings: 100 nM sensor, 90 nM isozyme
T5 construct: purchased Oxford Biomedical Research (a second source is given: Israel Structural Proteomics Center, recombinant)
T5 sequence (P08263 2-222 limits assumed): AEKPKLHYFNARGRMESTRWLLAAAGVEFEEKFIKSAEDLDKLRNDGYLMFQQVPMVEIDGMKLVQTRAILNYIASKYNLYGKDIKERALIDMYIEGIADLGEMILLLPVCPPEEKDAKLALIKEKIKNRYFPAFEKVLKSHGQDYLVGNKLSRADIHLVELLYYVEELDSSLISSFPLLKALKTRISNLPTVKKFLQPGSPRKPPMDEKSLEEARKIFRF
Procedure: as §1, §2

GST-A2-2 [8] = target: T4, GST-A2-2; assay: GST kinetic measurements and inhibitory constants (CDNB/GSH), GST-A2-2; assay type: biochemical; settings: Morrison fit; GSH 3 mM, CDNB 1.5 mM; read-out: approximate inhibition constant Ki, GST-A2-2
Procedure: (§4) (FIGS. 16- and 19). The concentrations of different GSTs, GSH, and CDNB were 20 nM, 350 μM, and 700 μM, respectively. The GST activity was measured spectrophotometrically using chloro-2,4-dinitrobenzene (CDNB) and GSH as substrates, in phosphate buffer (10 mM, pH 6.5). In a typical experiment, GST and sensors 14 or 140 were incubated for 10 min at 25° C. and then GSH and CDNB were subsequently added. The formation of S-(2,4-dinitrophenyl)-glutathione was monitored using the microplate reader at λ=340 nm. […] The concentrations of GSH and CDNB were 3 mM and 1.5 mM, respectively. The Km values were determined using 20 nM of each GST isoform, 3 mM GSH, and variable CDNB concentrations (50 μM-2 mM). Data were fit to the Michaelis-Menten equation using Sigmaplot version 12.0 statistical software (Systat) to obtain the Km values.
(§5) The data were analyzed using Graphpad Prism 6.0 and fitted to the Morrison equation for tight binding substrates (FIG. 18 and FIG. 19(b,c)).
(§6) [formula] where Y is the enzyme activity, X is different concentrations of inhibitor (compound 14 or 140), E is the enzyme concentration, S is the concentration of substrate, Km is the Michaelis-Menten constant determined in an experiment without inhibitor, and V0 is the initial velocity.

GST-M1-1 [9] = target: T2, GST-M1-1; assay: GST sensing: fluorescence response to GST-M1-1; assay type: binding; settings: 100 nM sensor
Procedure: as §1, §2
Two different mixtures of GST isoforms were prepared: one that contained all the GST isoforms (20 nM of each GST, in total 160 nM) (A1-1k2-2, P1-1, M1-1, T1-1, O1-1, Z1-1, and K1-1) and the second mixture contained all the GST isoforms except GST-M1-1.

GST-P1-1 [10] = target: T3, GST-P1-1; assay: GST kinetic measurements and inhibitory constants (CDNB/GSH), GST-P1-1; assay type: biochemical; settings: Morrison fit; GSH 3 mM, CDNB 1.5 mM; read-out: approximate inhibition constant Ki, GST-P1-1
Procedure: as §4, §5, §6

streptavidin (SAv), sequence (P22629 25-183): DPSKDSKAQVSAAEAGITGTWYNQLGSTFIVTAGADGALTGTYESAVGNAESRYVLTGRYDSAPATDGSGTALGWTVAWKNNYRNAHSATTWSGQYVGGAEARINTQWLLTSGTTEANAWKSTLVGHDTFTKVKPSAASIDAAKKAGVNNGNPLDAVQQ
T3 sequence (P09211 2-210 limits assumed): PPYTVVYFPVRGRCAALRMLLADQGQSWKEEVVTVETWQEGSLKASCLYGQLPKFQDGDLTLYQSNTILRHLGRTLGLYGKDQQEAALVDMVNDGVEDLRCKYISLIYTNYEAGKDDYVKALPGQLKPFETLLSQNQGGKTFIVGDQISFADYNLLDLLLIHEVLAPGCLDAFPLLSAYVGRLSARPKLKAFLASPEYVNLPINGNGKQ
T1 sequence (P04058 22-564): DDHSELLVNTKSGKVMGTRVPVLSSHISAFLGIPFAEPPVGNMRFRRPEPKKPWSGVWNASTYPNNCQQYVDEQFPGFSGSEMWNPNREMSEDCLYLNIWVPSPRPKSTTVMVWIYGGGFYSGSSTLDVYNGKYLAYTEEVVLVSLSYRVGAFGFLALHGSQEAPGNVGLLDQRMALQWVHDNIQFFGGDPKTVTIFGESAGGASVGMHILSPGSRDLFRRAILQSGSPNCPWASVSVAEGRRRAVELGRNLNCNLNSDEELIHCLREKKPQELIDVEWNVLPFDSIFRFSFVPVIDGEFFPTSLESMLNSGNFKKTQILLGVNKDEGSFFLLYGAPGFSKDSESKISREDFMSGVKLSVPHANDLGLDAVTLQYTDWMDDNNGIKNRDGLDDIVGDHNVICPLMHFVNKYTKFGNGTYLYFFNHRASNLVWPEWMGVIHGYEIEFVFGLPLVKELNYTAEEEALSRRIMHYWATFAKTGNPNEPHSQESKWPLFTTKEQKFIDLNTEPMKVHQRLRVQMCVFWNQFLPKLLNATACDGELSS
avidin (Av), sequence (P02701 25-152): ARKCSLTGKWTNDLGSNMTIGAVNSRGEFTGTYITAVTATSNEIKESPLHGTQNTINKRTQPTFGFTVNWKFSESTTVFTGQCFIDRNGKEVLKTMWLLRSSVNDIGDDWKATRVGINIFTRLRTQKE

O=C(CCN1C=C/C(=C\c2sc3ccccc3[n+]2CCC(=O)NCCCCCCNc2c3c(nc4ccccc24)CCCC3)c2ccccc21)NCCCCCCNc1c2c(nc3ccccc13)CCCC2.[I-] [sensor 36]
detection of AChE (AChE [1]): could detect AChE
enhancement in fluorescence emission upon addition of AChE (AChE [1]; phosphate buffer 20 mM pH 8): 22 fold
inhibition of AChE activity (AChE [2]): strong bivalent inhibitor; also recorded: full inhibition at low nanomolar concentration
Ki (AChE [2]; competitive inhibition fit, acetylthiocholine iodide substrate, read-out: approximate inhibition constant Ki, AChE): 0.32 nM and 0.31 nM

C=C(CC)C(=O)c1ccc(OCC(=O)O)c(Cl)c1Cl [EA, Ethacrynic acid]
displacement of sensor 14 from GST-M1-1 (reduction in emission) (GST-M1-1 [3]): selective identification

C=C(CC)C(=O)c1ccc(OCC(=O)NCCNC(=O)CCN2C=C/C(=C\c3sc4ccccc4[n+]3CCC(=O)NCCNC(=O)COc3ccc(C(=O)C(=C)CC)c(Cl)c3Cl)c3ccccc32)c(Cl)c1Cl [sensor 140, (E)-3-(3-((2-(2-(2,3-dichloro-4-(2-methylenebutanoyl)phenoxy)acetamido)ethyl)amino)-3-oxopropyl)-2-((1-(3-((2-(2-(2,3-dichloro-4-(2-methylenebutanoyl)phenoxy)acetamido)ethyl)amino)-3-oxopropyl)quinolin-4(1H)-ylidene)methyl)benzoidithiazol-3-ium iodide]
localization of fluorescence in live MDA-MB-231 cells [4]: distributed within the cell
turn-on fluorescence signal in the presence of GST-P1-1 (GST-P1-1 [5]; 90 nM GST-P1-1, after 30 min incubation): 33 fold
fluorescence response to addition of dsDNA (FIG. 21e) (dsDNA): negligible fluorescence responses
Kd (GST-P1-1 [6]): 29 nM
emission signal in MCF-10A cells (healthy MCF-10A cells): much weaker emission signal

O=C(CCCCC1SCC2NC(=O)NC21)NCCOCCOCCNC(=O)CCN1C=C/C(=C\c2sc3ccccc3[n+]2CCC(=O)NCCOCCOCCNC(=O)CCCCC2SCC3NC(=O)NC32)c2ccccc21.[I-] (centres unmarked) [sensor 34]
fluorescence response to SAv (streptavidin (SAv)): weakly; also recorded: hardly detected
fluorescence response to addition of dsDNA (FIG. 21e) (dsDNA): negligible fluorescence responses
fluorescence response to Av (avidin (Av)): strongly
enhancement in fluorescence emission upon addition of Av (avidin (Av)): 16 fold

O=C(CCN1C=C/C(=C\c2sc3ccccc3[n+]2CCC(=O)NCCNc2c3c(nc4ccccc24)CCCC3)c2ccccc21)NCCNc1c2c(nc3ccccc13)CCCC2.[I-] [sensor 37]
detection of AChE (AChE [1]): could detect AChE
inhibition of AChE activity (AChE [2]): inhibited the AChE, activity only at 2 μM

CCCCCCSC[C@H](NC(=O)CC[C@H](N)C(=O)O)C(=O)NCC(=O)O [s-hexyl GSH]
displacement of sensor 14 from GST-M1-1 (reduction in emission) (GST-M1-1 [3]): selective identification

C=C(CC)C(=O)c1ccc(OCC(=O)NCCCn2cc(CNC(=O)OCCCN3C=C/C(=C\c4sc5ccccc5[n+]4CCCOC(=O)NCc4cn(CCCNC(=O)COc5ccc(C(=O)C(=C)CC)c(Cl)c5Cl)nn4)c4ccccc43)nn2)c(Cl)c1Cl [sensor 14]
fluorescence detection of GST-A2-2 (GST-A2-2 [7]): could not be detected
fluorescence detection of GST-A1-1 (GST-A1-1): could not be detected
time course of emission in the presence of GST-P1-1 (GST-P1-1 [5]; 90 nM GST P1-1, phosphate buffer 5 mM pH 6.5): slowly increased over a period of 2 hours
fluorescence response to addition of dsDNA (FIG. 21e) (dsDNA): negligible fluorescence responses; also recorded: did not exhibit any change in its fluorescence at 540 nm
change in fluorescence upon addition of dsDNA (Example 3) (dsDNA; 500 nM TO derivative, 100-900 nM dsDNA, PBS pH 6.5, emission 530 nm): did not exhibit any change in its fluorescence at 530 nm
Ki (GST-A2-2 [8]): 20 nM
Kd (GST-P1-1 [6]): 38 nM
fluorescence enhancement in the presence of GST-M1-1 (GST-M1-1 [9]; 90 nM GST-M1-1, phosphate buffer 5 mM pH 6.5, recorded immediately): 55 fold
detection of GST-M1-1 in a mixture of GST isozymes (GST-M1-1 [9]; GST-M1-1 20 nM plus seven additional GSTs 20 nM each): selective detection of GST-M1-1 in a mixture of isoforms
Ki (GST-P1-1 [10]): 49 nM

O=C(CCCCC1SCC2NC(=O)NC21)NCCNC(=O)CCN1C=C/C(=C\c2sc3ccccc3[n+]2CCC(=O)NCCNC(=O)CCCCC2SCC3NC(=O)NC32)c2ccccc21.[I-] (centres unmarked) [sensor 35]
fluorescence response to SAv (streptavidin (SAv)): weakly; also recorded: hardly detected
fluorescence response to Av (avidin (Av)): strongly
enhancement in fluorescence emission upon addition of Av (avidin (Av)): 7 fold

CN1C(=Cc2cc[n+](C)c3ccccc23)Sc2ccccc21 [TO, Thiazole Orange, reference compound]
localization of fluorescence in live MDA-MB-231 cells [4]: strong green emission mainly from the nucleus
fluorescence response to addition of dsDNA (FIG. 21e) (dsDNA): strong fluorescence signal
